ChEMBL document CHEMBL5143708, “New antimalarials identified by a cell-based phenotypic approach: Structure-activity relationships of 2,3,4,9-tetrahydro-1H-β-carboline derivatives possessing a 2-((coumarin-5-yl)oxy)alkanoyl moiety” (Bioorg Med Chem, 2022)
Activity calls are given as the source filed them. The calls are words filed in the database; no cut-off is given here.

Legend:
Plasmodium falciparum [1] = test: Antiplasmodial activity against Plasmodium falciparum 3D7 infected in human RBC assessed as reduction in parasite growth after 72 hrs by LDH assay; assay type: functional, organism-based; conditions: 3D7, Erythrocyte
[2] = Cytotoxicity against human HL-60 cells assessed as reduction in cell viability after 48 hrs by Cell Count Reagent SF based assay; assay type: toxicity
Plasmodium falciparum [3] = test: Antiplasmodial activity against chloroquine-resistant Plasmodium falciparum Dd2 infected in human RBC assessed as reduction in parasite growth after 72 hrs by LDH assay; assay type: functional, organism-based; conditions: Dd2, Erythrocyte
Plasmodium falciparum [4] = test: Antiplasmodial activity against chloroquine-resistant Plasmodium falciparum K1 infected in human RBC assessed as reduction in parasite growth after 72 hrs by LDH assay; assay type: functional, organism-based; conditions: K1, Erythrocyte
[5] = Tmax in ICR mouse at 40 mg/kg, ip; assay type: ADME, organism-based; conditions: in vivo
Plasmodium berghei [6] = test: Antimalarial activity against Plasmodium berghei ANKA infected in ICR mouse assessed as reduction in parasitemia level at 40 to 200 mg/kg, ip administered for 4 to 7 days after post-infection by Giemsa staining based microscopic analysis; assay type: functional, organism-based; conditions: dose 40-200 mg/kg, time 4-7 day
Plasmodium berghei [7] = test: Antimalarial activity against Plasmodium berghei ANKA infected in ICR mouse assessed as increase in body weight at 40 mg/kg, ip administered for 4 to 7 days after post-infection by Giemsa staining based microscopic analysis; assay type: functional, organism-based; conditions: time 4-7 day
[8] = Toxicity in ICR mouse infected with Plasmodium berghei ANKA assessed as decrease in body weight at 200 mg/kg, ip administered for 4 to 7 days after post-infection by Giemsa staining based microscopic analysis; assay type: organism-based; conditions: in vivo, time 4-7 day
Plasmodium berghei [9] = test: Antimalarial activity against Plasmodium berghei ANKA infected in ICR mouse assessed as increase in body weight at 200 mg/kg, ip administered for 4 to 7 days after post-infection and measured on day 11 post-infection by Giemsa staining based microscopic analysis; assay type: functional, organism-based; conditions: time 8.0 day
Plasmodium berghei [10] = test: Antimalarial activity against Plasmodium berghei ANKA infected in ICR mouse assessed as increase in survival at 40 mg/kg, ip administered for 4 to 7 days after post-infection and measured on day 11 post-infection by Giemsa staining based microscopic analysis; assay type: functional, organism-based; conditions: time 8.0 day
[11] = Toxicity in ICR mouse infected with Plasmodium berghei ANKA assessed as decrease in body weight at 200 mg/kg, ip administered for 4 to 7 days after post-infection and measured on day 18 post-infection by Giemsa staining based microscopic analysis; assay type: organism-based; conditions: in vivo, 360 h, time 15 day
Plasmodium berghei [12] = test: Antimalarial activity against Plasmodium berghei ANKA infected in ICR mouse assessed as increase in survival at 200 mg/kg, ip administered for 4 to 7 days after post-infection and measured on day 19 post-infection by Giemsa staining based microscopic analysis; assay type: functional, organism-based; conditions: time 16.0 day
[13] = AUC in ICR mouse at 40 mg/kg, ip; assay type: ADME, organism-based; design: dose 40 mg/kg, route ip; conditions: in vivo
[14] = Cmax in ICR mouse at 40 mg/kg, ip; assay type: ADME, organism-based; design: dose 40 mg/kg, route ip; conditions: in vivo
[15] = Half life in ICR mouse at 40 mg/kg, ip; assay type: ADME, organism-based; conditions: in vivo

SMILES | IC50 (Plasmodium falciparum [1]) [nM] | IC50 at 48 h [2] [nM] | further results
CCCCc1cc(=O)oc2cc(C)cc(O[C@H](C)C(=O)N[C@@H](Cc3c[nH]c4ccccc34)C(=O)OC)c12 | 55 | > 3000 | –
CCCCc1cc(=O)oc2cc(C)cc(OCC(=O)N3Cc4[nH]c5ccccc5c4C[C@H]3C(=O)OC)c12 | 20 | > 3000 | IC50 (Plasmodium falciparum [3]): 24 nM; IC50 (Plasmodium falciparum [4]): 20 nM
CCCCc1cc(=O)oc2cc(C)cc(OCC(=O)N3Cc4[nH]c5ccccc5c4C[C@@H]3C(=O)OC)c12 | 980 | > 3000 | –
CCCc1cc(=O)oc2cc(C)cc(O[C@H](C)C(=O)N3Cc4[nH]c5ccccc5c4C[C@H]3C(=O)OC)c12 | 1.9 | > 3000 | IC50 (Plasmodium falciparum [3]): 2.1 nM; IC50 (Plasmodium falciparum [4]): 1.9 nM
CCCCc1cc(=O)oc2cc(C)cc(O[C@@H](C)C(=O)N3Cc4[nH]c5ccccc5c4C[C@H]3C(=O)OC)c12 | 190 | > 3000 | –
CCCCc1cc(=O)oc2cc(C)cc(O[C@H](C)C(=O)N3Cc4[nH]c5ccccc5c4C[C@H]3C#N)c12 | 4.1 | > 3000 | –
CCc1cc(=O)oc2cc(C)cc(O[C@H](C)C(=O)N3Cc4[nH]c5ccccc5c4C[C@H]3C(=O)OC)c12 | 11 | > 3000 | –
CCCCc1cc(=O)oc2cc(C)cc(O[C@H](C)C(=O)N3Cc4[nH]c5ccccc5c4C[C@H]3C(C)=O)c12 | 5.6 | > 3000 | –
COC(=O)[C@@H]1Cc2c([nH]c3ccccc23)CN1C(=O)[C@@H](C)Oc1cc(C)cc2oc(=O)cc(CC3CC3)c12 | 3.5 | > 3000 | –
CCCCc1cc(=O)oc2cc(C)cc(OCC(=O)N3Cc4[nH]c5ccccc5c4C[C@H]3C(=O)NC)c12 | > 3000 | > 3000 | –
CCCCc1cc(=O)oc2cc(N3CCOCC3)cc(O[C@H](C)C(=O)N3Cc4[nH]c5ccccc5c4C[C@H]3C(=O)OC)c12 | 210 | > 3000 | –
CCCCc1cc(=O)oc2cc(C)cc(OC(C)C(=O)N3Cc4[nH]c5ccccc5c4C[C@H]3C(=O)OC)c12 (some centres undefined) | 6.8 | > 3000 | –
CCCCC(=O)c1c(OC)cc(C)cc1O[C@H](C)C(=O)N1Cc2[nH]c3ccccc3c2C[C@H]1C(=O)OC | 2400 | > 3000 | –
CCCCc1cc(=O)oc2cc(C)cc(O[C@H](C)C(=O)N3Cc4[nH]c5ccc(F)cc5c4C[C@H]3C(=O)OC)c12 | 5.5 | > 3000 | –
CCCCc1cc(=O)oc2cccc(O[C@H](C)C(=O)N3Cc4[nH]c5ccccc5c4C[C@H]3C(=O)OC)c12 | 4.1 | > 3000 | –
CCCCc1coc2cc(C)cc(O[C@H](C)C(=O)N3Cc4[nH]c5ccccc5c4C[C@H]3C#N)c12 | 110 | > 3000 | –
CCCCc1cc(=O)oc2cc(C)cc(OC(C(=O)N3Cc4[nH]c5ccccc5c4C[C@H]3C(=O)OC)C(C)C)c12 (some centres undefined) | 6.4 | > 3000 | –
CCCCc1cc(=O)oc2cc(C)cc(OC(CC)C(=O)N3Cc4[nH]c5ccccc5c4C[C@H]3C(=O)OC)c12 (some centres undefined) | 7 | > 3000 | –
CCCCc1cc(=O)oc2cc(C)cc(OC(CCC)C(=O)N3Cc4[nH]c5ccccc5c4C[C@H]3C(=O)OC)c12 (some centres undefined) | 5.9 | > 3000 | –
CCCCc1cc(=O)oc2cc(C)cc(OC(CCCC)C(=O)N3Cc4[nH]c5ccccc5c4C[C@H]3C(=O)OC)c12 (some centres undefined) | 10 | > 3000 | –
CCCCc1cc(=O)oc2cc(C)cc(O[C@H](C)C(=O)N3Cc4[nH]c5ccccc5c4C[C@H]3C(=O)OC)c12 | 2 | > 3000 | Tmax [5]: 2 h; IC50 (Plasmodium falciparum [3]): 2.2 nM; IC50 (Plasmodium falciparum [4]): 2.6 nM; Activity (Plasmodium berghei [6]): Active; Activity (Plasmodium berghei [7]): Active; Activity [8]: Toxic; Activity (Plasmodium berghei [9]): Active; Activity (Plasmodium berghei [10]): Active; Activity [11]: Toxic; Activity (Plasmodium berghei [12]): Active; AUC [13]: 25600 ng·h/mL; Cmax [14]: 7120 ng/mL; half-life [15]: 2.14 h
CCCCc1cc(=O)oc2cc(C)cc(O[C@H](C)C(=O)N3Cc4[nH]c5ccccc5c4C[C@H]3C(=O)OCC)c12 | 55 | > 3000 | –
COC(=O)[C@@H]1Cc2c([nH]c3ccccc23)CN1C(=O)[C@@H](C)Oc1cc(C)cc2oc(=O)cc(C)c12 | 40 | > 3000 | –
CCCCc1cc(=O)oc2cc(Br)cc(O[C@H](C)C(=O)N3Cc4[nH]c5ccccc5c4C[C@H]3C(=O)OC)c12 | 9.6 | > 3000 | –
CCCCc1coc2cc(C)cc(O[C@H](C)C(=O)N3Cc4[nH]c5ccccc5c4C[C@H]3C(=O)OC)c12 | 220 | > 3000 | –
CCCCc1cc(=O)oc2cc(C)cc(O[C@H](C)C(=O)N3CCc4c([nH]c5ccccc45)C3)c12 | 72 | > 3000 | –
